Biological target: human PCSK9 (Homo sapiens, UniProt Q8NBP7)
Assay: PCSK9 ligand binding assay (TR-FRET): interference with binding of human PCSK9 to human LDLR
Details: for IC50: Human PCSK9 Alexa Fluor 647 / Human LDLR extracellular domain-Europium Kryptate; for Max % inhibition: efficacy (Amax), 100% = 1 uM unlabeled human PCSK9, 0% = DMSO
Outline: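 Read-out was TR-FRET ratio (665 nm over 615 nm, 330 nm excitation) between Alexa Fluor 647-human PCSK9 (16 nM added) and Europium Kryptate-human LDLR ectodomain (4 nM added). Compound and PCSK9 were mixed 30 min before LDLR, then incubated 2 h. Inhibition was normalised to DMSO and unlabelled-PCSK9 controls, giving IC50 and Amax.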

Chain of human PCSK9 (Q8NBP7 153-692): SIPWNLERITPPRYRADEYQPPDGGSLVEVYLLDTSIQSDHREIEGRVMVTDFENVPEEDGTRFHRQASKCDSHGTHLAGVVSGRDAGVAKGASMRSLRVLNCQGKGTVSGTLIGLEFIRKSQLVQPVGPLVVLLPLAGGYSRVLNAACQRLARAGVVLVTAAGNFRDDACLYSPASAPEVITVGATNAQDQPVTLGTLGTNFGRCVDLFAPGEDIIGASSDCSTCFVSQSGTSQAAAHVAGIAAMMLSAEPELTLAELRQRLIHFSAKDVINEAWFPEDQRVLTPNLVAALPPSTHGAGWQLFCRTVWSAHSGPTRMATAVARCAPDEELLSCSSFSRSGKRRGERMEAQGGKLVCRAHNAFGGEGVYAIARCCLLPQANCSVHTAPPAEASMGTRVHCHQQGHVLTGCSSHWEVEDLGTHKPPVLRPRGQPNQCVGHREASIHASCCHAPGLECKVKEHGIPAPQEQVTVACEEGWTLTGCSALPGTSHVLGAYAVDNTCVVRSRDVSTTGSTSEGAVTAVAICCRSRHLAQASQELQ
Chain of human PCSK9 (Q8NBP7 31-152 partner limits assumed): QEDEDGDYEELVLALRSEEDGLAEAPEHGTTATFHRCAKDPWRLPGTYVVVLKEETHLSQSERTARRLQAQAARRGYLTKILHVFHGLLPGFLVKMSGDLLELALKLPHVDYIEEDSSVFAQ

| IC50 | Max % inhibition | Compound |
| --- | --- | --- |
| 0.71 nM | 104.6% | C[C@H]1C(=O)N[C@@H](CO)C(=O)N[C@@]2(Cc3ccc(Cl)cc3)CCCN(C2)C(=O)[C@H](CC2CC2)CC(=O)N1Cc1c(F)cc(Cl)cc1Oc1ccc(-c2cnc(CNC(C)(C)C)n2C)cc1 [Compound 154, (3R, 7S, 10S, 13R)-6-(2-(4-(2-((tert-butylamino)methyl)-1-methyl-1H-imidazol-5-yl)phenoxy)-4-chloro-6-fluorobenzyl)-13-(4-chlorobenzyl)-3-(cyclopropylmethyl)-10-(hydroxymethyl)-7-methyl-1,6,9,12-tetraazabicyclo[11.3.1]heptadecane-2,5,8,11-tetraone] |
| 0.95 nM | 101.4% | C[C@H]1C(=O)N[C@@H](CO)C(=O)N[C@@]2(Cc3ccc(Cl)cc3)CCCN(C2)C(=O)[C@H](CC2CCC2)CC(=O)N1Cc1c(F)cc(Cl)cc1Oc1ccc(-c2cnc(CN(C)C)n2C)cc1 [Compound 155, (3R, 7S, 10S, 13R)-6-(4-chloro-2-(4-(2-((dimethylamino)methyl)-1-methyl-1H-imidazol-5-yl)phenoxy)-6-fluorobenzyl)-13-(4-chlorobenzyl)-3-(cyclobutylmethyl)-10-(hydroxymethyl)-7-methyl-1,6,9,12-tetraazabicyclo[11.3.1]heptadecane-2,5,8,11-tetraone] |
| 1.18 nM | 104.7% | COC[C@@H]1NC(=O)[C@H](C)N(Cc2c(F)cc(Cl)cc2Oc2ccc(-c3cnc(CN4CCC4)n3C)cc2)C(=O)C[C@@H](CC(F)(F)F)C(=O)N2CCC[C@@](Cc3ccc(Cl)cc3)(C2)N(C)C1=O [Compound 157, (3S, 7S, 10S, 13R)-6-(2-(4-(2-(azetidin-1-ylmethyl)-1-methyl-1H-imidazol-5-yl)phenoxy)-4-chloro-6-fluorobenzyl)-13-(4-chlorobenzyl)-10-(methoxymethyl)-7,12-dimethyl-3-(2,2,2-trifluoroethyl)-1,6,9,12-tetraazabicyclo[11.3.1]heptadecane-2,5,8,11-tetraone] |
| 0.96 nM | 110.3% | COC[C@@H]1NC(=O)[C@H](C)N(Cc2c(F)cc(Cl)cc2Oc2ccc(-c3cnc(CN(C)C)n3C)cc2)C(=O)C[C@@H](CC(C)(F)F)C(=O)N2CCC[C@@](Cc3ccc(Cl)cc3)(C2)N(C)C1=O [Compound 158, (3S, 7S, 10S, 13R)-6-(4-chloro-2-(4-(2-((dimethylamino)methyl)-1-methyl-1H-imidazol-5-yl)phenoxy)-6-fluorobenzyl)-13-(4-chlorobenzyl)-3-(2,2-difluoropropyl)-10-(methoxymethyl)-7,12-dimethyl-1,6,9,12-tetraazabicyclo[11.3.1]heptadecane-2,5,8,11-tetraone] |
| 1.25 nM | 114.0% | COC[C@@H]1NC(=O)[C@H](C)N(Cc2c(F)cc(Cl)cc2Oc2ccc(-c3cnc(CN(C)C)n3C)cc2)C(=O)C[C@@H](Cc2ccccc2)C(=O)N2CCC[C@@](Cc3ccc(Cl)cc3)(C2)N(C)C1=O [Compound 159, (3R, 7S, 10S, 13R)-3-benzyl-6-(4-chloro-2-(4-(2-((dimethylamino)methyl)-1-methyl-1H-imidazol-5-yl)phenoxy)-6-fluorobenzyl)-13-(4-chlorobenzyl)-10-(methoxymethyl)-7,12-dimethyl-1,6,9,12-tetraazabicyclo[11.3.1]heptadecane-2,5,8,11-tetraone] |
| 1.63 nM | 113.8% | COC[C@@H]1NC(=O)[C@H](C)N(Cc2c(F)cc(Cl)cc2Oc2ccc(-c3cnc(CN(C)C4CCC4)n3C)cc2)C(=O)C[C@@H](CC(F)(F)F)C(=O)N2CCC[C@@](Cc3ccc(Cl)cc3)(C2)NC1=O [Compound 160, (3S, 7S, 10S, 13R)-6-(4-chloro-2-(4-(2-((cyclobutyl(methyl)amino)methyl)-1-methyl-1H-imidazol-5-yl)phenoxy)-6-fluorobenzyl)-13-(4-chlorobenzyl)-10-(methoxymethyl)-7-methyl-3-(2,2,2-trifluoroethyl)-1,6,9,12-tetraazabicyclo[11.3.1]heptadecane-2,5,8,11-tetraone] |
| 0.33 nM | 115.5% | C[C@H]1C(=O)N[C@@H](CO)C(=O)N[C@@]2(Cc3ccc(Cl)cc3)CCCN(C2)C(=O)[C@H](C2CC(F)(F)C2)CC(=O)N1Cc1c(F)cc(Cl)cc1Oc1ccc(-c2cnc(CN(C)C)n2C)cc1 [Compound 161, (3S, 7S, 10S, 13R)-6-(4-chloro-2-(4-(2-((dimethylamino)methyl)-1-methyl-1H-imidazol-5-yl)phenoxy)-6-fluorobenzyl)-13-(4-chlorobenzyl)-3-(3,3-difluorocyclobutyl)-10-(hydroxymethyl)-7-methyl-1,6,9,12-tetraazabicyclo[11.3.1]heptadecane-2,5,8,11-tetraone] |
| 1.3 nM | 114.4% | C[C@H]1C(=O)N[C@@H](CO)C(=O)N[C@@]2(Cc3ccc(Cl)cc3)CCCN(C2)C(=O)[C@H](CC2CC2)CC(=O)N1Cc1ccc(Cl)cc1Oc1ccc(-c2cnc(CN(C)C(C)(C)C)n2C)cc1 [Compound 162, (3R, 7S, 10S, 13R)-6-(2-(4-(2-((tert-butyl(methyl)amino)methyl)-1-methyl-1H-imidazol-5-yl)phenoxy)-4-chlorobenzyl)-13-(4-chlorobenzyl)-3-(cyclopropylmethyl)-10-(hydroxymethyl)-7-methyl-1,6,9,12-tetraazabicyclo[11.3.1]heptadecane-2,5,8,11-tetraone] |
| 1.21 nM | 111.6% | C[C@H]1C(=O)N[C@@H](CO)C(=O)N[C@@]2(Cc3ccc(Cl)cc3)CCCN(C2)C(=O)[C@H](CC2CC2)CC(=O)N1Cc1c(F)cc(Cl)cc1Oc1ccc(-c2cnc(CN(C)C(C)(C)C)n2C)cc1 [Compound 163, (3R, 7S, 10S, 13R)-6-(2-(4-(2-((tert-butyl(methyl)amino)methyl)-1-methyl-1H-imidazol-5-yl)phenoxy)-4-chloro-6-fluorobenzyl)-13-(4-chlorobenzyl)-3-(cyclopropylmethyl)-10-(hydroxymethyl)-7-methyl-1,6,9,12-tetraazabicyclo[11.3.1]heptadecane-2,5,8,11-tetraone] |
| 0.9 nM | 109.6% | C[C@H]1C(=O)N[C@@H](CO)C(=O)N(C)[C@@]2(Cc3ccc(Cl)cc3)CCCN(C2)C(=O)[C@H](C2CC(F)(F)C2)CC(=O)N1Cc1c(F)cc(Cl)cc1Oc1ccc(-c2cnc(CN(C)C)n2C)cc1 [Compound 164, (3S, 7S, 10S, 13R)-6-(4-chloro-2-(4-(2-((dimethylamino)methyl)-1-methyl-1H-imidazol-5-yl)phenoxy)-6-fluorobenzyl)-13-(4-chlorobenzyl)-3-(3,3-difluorocyclobutyl)-10-(hydroxymethyl)-7,12-dimethyl-1,6,9,12-tetraazabicyclo[11.3.1]heptadecane-2,5,8,11-tetraone] |
| 0.93 nM | 113.3% | COC[C@@H]1NC(=O)[C@H](C)N(Cc2c(F)cc(Cl)cc2Oc2ccc(-c3cnc(CNC(C)(C)C)n3C)cc2)C(=O)C[C@@H](C2CC(F)(F)C2)C(=O)N2CCC[C@@](Cc3ccc(Cl)cc3)(C2)N(C)C1=O [Compound 165, (3S,7S,10S,13R)-6-(2-(4-(2-((tert-butylamino)methyl)-1-methyl-1H-imidazol-5-yl)phenoxy)-4-chloro-6-fluorobenzyl)-13-(4-chlorobenzyl)-3-(3,3-difluorocyclobutyl)-10-(methoxymethyl)-7,12-dimethyl-1,6,9,12-tetraazabicyclo[11.3.1]heptadecane-2,5,8,11-tetraone] |
| 0.74 nM | 98.1% | COC[C@@H]1NC(=O)[C@H](C)N(Cc2c(F)cc(Cl)cc2Oc2ccc(-c3cnc(CN)n3C)cc2)C(=O)C[C@@H](C2CC(F)(F)C2)C(=O)N2CCC[C@@](Cc3ccc(Cl)cc3)(C2)N(C)C1=O [Compound 166, (3S, 7S, 10S, 13R)-6-(2-(4-(2-(aminomethyl)-1-methyl-1H-imidazol-5-yl)phenoxy)-4-chloro-6-fluorobenzyl)-13-(4-chlorobenzyl)-3-(3,3-difluorocyclobutyl)-10-(methoxymethyl)-7,12-dimethyl-1,6,9,12-tetraazabicyclo[11.3.1]heptadecane-2,5,8,11-tetraone] |
| 0.9 nM | 108.6% | CNCc1ncc(-c2ccc(Oc3cc(Cl)cc(F)c3CN3C(=O)C[C@@H](Cc4cccc(C)n4)C(=O)N4CCC[C@@](Cc5ccc(Cl)cc5)(C4)N(C)C(=O)[C@H](COC)NC(=O)[C@@H]3C)cc2)n1C [Compound 167, (3R,7S,10S,13R)-6-(4-chloro-2-fluoro-6-(4-(1-methyl-2-((methylamino)methyl)-1H-imidazol-5-yl)phenoxy)benzyl)-13-(4-chlorobenzyl)-10-(methoxymethyl)-7,12-dimethyl-3-((6-methylpyridin-2-yl)methyl)-1,6,9,12-tetraazabicyclo[11.3.1]heptadecane-2,5,8,11-tetraone] |
| 0.81 nM | 114.9% | COC[C@@H]1NC(=O)[C@H](C)N(Cc2c(F)cc(Cl)cc2Oc2ccc(-c3cnc(CN(C)C)n3C)cc2)C(=O)C[C@@H](Cc2cccc(C)[n+]2[O-])C(=O)N2CCC[C@@](Cc3ccc(Cl)cc3)(C2)N(C)C1=O [Compound 168, 2-(((3R, 7S, 10S, 13R)-6-(4-chloro-2-(4-(2-((dimethylamino)methyl)-1-methyl-1H-imidazol-5-yl)phenoxy)-6-fluorobenzyl)-13-(4-chlorobenzyl)-10-(methoxymethyl)-7,12-dimethyl-2,5,8,11-tetraoxo-1,6,9,12-tetraazabicyclo[11.3.1]heptadecan-3-yl)methyl)-6-methylpyridine 1-oxide] |

— patent publication US11813306B2, “Cyclic tetramer compounds as proprotein convertase subtilisin/kexin type 9 (PCSK9) inhibitors for the treatment of metabolic disorders” (NOVARTIS AG, priority 2018, dated 2023)
